Experimental data taken from patent US7118895B2, “Process for producing aglycon by using diglycosidase and flavor-improved food containing the aglycon and converting agent to be used in the process” (Amano Enzyme Inc., priority 2000, dated 2006).

What was measured:
[1] = test system: Crude diglycosidase; experiment: Examination of substrate concentration in the conversion into isoflavone aglycons by diglycosidase using soybean materials; format: biochemical, Penicillium multicolor IAM7153;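 also: percent of the isoflavone family total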
Summary of the method: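 Soybean materials (roasted soy flour, soymilk, defatted soybean, concentrated soy protein) at 2–30% (w/v) in 20 mM acetate pH 4.0 were reacted with crude diglycosidase at 55° C with shaking; enzyme solution added was 1.88 AU/mL. Samples taken at 0, 1, 3 and 6 h were ethanol-extracted and analyzed by HPLC.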

[2] = test system: β-Glucosidase derived from almond; experiment: Reactivity toward various isoflavone glycosides (HPLC); format: biochemical; set-up: unit not given here; conditions: 55 °C, pH 4.0
Method: (§1) Diglycosidase was diluted with an acetate buffer of pH 4.0 to prepare a 0.75 AU/mL enzyme solution. As references, a similar operation was conducted using β-glucosidase (manufactured by Fluka) derived from Aspergillus niger, β-glucosidase (manufactured by Sigma) derived from almond, β-xylosidase derived from pectinase G (manufactured by Amano Enzyme Inc.). Each of purified products of isoflavone glycosides (glycitin, acetylglycitin, malonylglycitin, daidzin, acetyldaidzin, malonyldaidzin, genistin, acetylgenistin, malonylgenistin, all manufactured by Nacalai Tesque, Inc.) was dissolved in methanol to prepare each 2 mM substrate solution. The reaction was carried out by mixing 10 μL of a substrate solution, 200 μL of 20 mM acetate buffer (pH 4.0), and 40 μL of each purified enzyme solution at a total liquid volume of 250 μL. The reaction was carried out at 55° C. and isolation of an aglycon isoflavone from an isoflavone glycoside in the reaction mixture was detected by HLPC at 0, 1, 3, and 6 hours of the reaction.
(§2) To the reaction mixture was added 700 μL of ethanol, followed by stirring and ultrasonication. After centrifugation at 15,000 rpm and 4° C. for 10 minutes, the supernatant was filtered through a filter and then the filtrate was applied to HPLC.
(§3) The isoflavone glycoside and aglycon isoflavone contained in the filtrate was separated and detected by a high performance liquid chromatography (HPLC, Shimadzu CLASS LC-10 system) using TOSOH TSK gel ODS-80TM column (manufactured by Tosoh Corporation). […] The absorbance at 260 nm was detected by a UV detector (Shimadzu, SPD-10AV). Using purified products (manufactured by Nacalai Tesque, Inc.) of the above isoflavone glycosides and aglycon isoflavones, the isoflavone glycoside and aglycon isoflavone were quantitatively determined according to a calibration curve method. By the way, unless otherwise stated, the measuring conditions of HPLC herein mean those described in the example.

[3] = test system: β-Xylosidase derived from pectinase G; experiment: as above; format: biochemical; set-up: unit not given here; conditions: 55 °C, pH 4.0
Method: as §1, §2, §3

Question: How did the “Decomposition efficiency: ratio of each glycoside/aglycon within its isoflavone family” value ([1]; roasted soy flour, substrate concentration 10%, heat treatment of enzyme no, reaction time 6 h) turn out when `COc1cc2c(=O)c(-c3ccc(O)cc3)coc2cc1O[C@@H]1O[C@H](COC(=O)CC(=O)O)[C@@H](O)[C@H](O)[C@H]1O` [malonylglycitin, 6″-O-malonylglycitin] was run?
Answer: The value was “not detected”.

Question: And the “Decomposition efficiency: ratio of each glycoside/aglycon within its isoflavone family” value ([1]; roasted soy flour, substrate concentration 10%, heat treatment of enzyme yes, reaction time 6 h)?
Answer: Its value is “not detected”.

Question: And the “Decomposition efficiency: ratio of each glycoside/aglycon within its isoflavone family” value ([1]; roasted soy flour, substrate concentration 20%, heat treatment of enzyme no, reaction time 0 h)?
Answer: The value was “not detected”.

Question: What about the “Decomposition efficiency: ratio of each glycoside/aglycon within its isoflavone family” value ([1]; roasted soy flour, substrate concentration 20%, heat treatment of enzyme no, reaction time 1 h) of the same molecule?
Answer: Its value is “not detected”.

Question: What about the “Decomposition efficiency: ratio of each glycoside/aglycon within its isoflavone family” value ([1]; roasted soy flour, substrate concentration 20%, heat treatment of enzyme no, reaction time 3 h) of the same molecule?
Answer: The value was “not detected”.

Question: What about the “Decomposition efficiency: ratio of each glycoside/aglycon within its isoflavone family” value ([1]; roasted soy flour, substrate concentration 20%, heat treatment of enzyme no, reaction time 6 h) of the same molecule?
Answer: The value was “not detected”.

Question: And the “Decomposition efficiency: ratio of each glycoside/aglycon within its isoflavone family” value ([1]; roasted soy flour, substrate concentration 20%, heat treatment of enzyme yes, reaction time 6 h)?
Answer: Its value is “not detected”.

Question: What about the “Decomposition efficiency: ratio of each glycoside/aglycon within its isoflavone family” value ([1]; roasted soy flour, substrate concentration 30%, heat treatment of enzyme no, reaction time 0 h) of the same molecule?
Answer: The value was “not detected”.

Question: And the “Decomposition efficiency: ratio of each glycoside/aglycon within its isoflavone family” value ([1]; roasted soy flour, substrate concentration 30%, heat treatment of enzyme no, reaction time 1 h)?
Answer: Its value is “not detected”.

Question: And the “Decomposition efficiency: ratio of each glycoside/aglycon within its isoflavone family” value ([1]; roasted soy flour, substrate concentration 30%, heat treatment of enzyme no, reaction time 3 h)?
Answer: Its value is “not detected”.

Question: What about the “Decomposition efficiency: ratio of each glycoside/aglycon within its isoflavone family” value ([1]; roasted soy flour, substrate concentration 30%, heat treatment of enzyme no, reaction time 6 h) of the same molecule?
Answer: Its value is “not detected”.

Question: What about the “Decomposition efficiency: ratio of each glycoside/aglycon within its isoflavone family” value ([1]; roasted soy flour, substrate concentration 30%, heat treatment of enzyme yes, reaction time 6 h) of the same molecule?
Answer: The value was “not detected”.

Question: What about the “Decomposition efficiency: ratio of each glycoside/aglycon within its isoflavone family” value ([1]; soymilk, substrate concentration 2%, heat treatment of enzyme no, reaction time 0 h) of the same molecule?
Answer: The value was 28.2%.

Question: And the “Decomposition efficiency: ratio of each glycoside/aglycon within its isoflavone family” value ([1]; soymilk, substrate concentration 2%, heat treatment of enzyme no, reaction time 1 h)?
Answer: The value was “not detected”.

Question: What about the “Decomposition efficiency: ratio of each glycoside/aglycon within its isoflavone family” value ([1]; soymilk, substrate concentration 2%, heat treatment of enzyme no, reaction time 3 h) of the same molecule?
Answer: The value was “not detected”.

Question: And the “Decomposition efficiency: ratio of each glycoside/aglycon within its isoflavone family” value ([1]; soymilk, substrate concentration 2%, heat treatment of enzyme no, reaction time 6 h)?
Answer: The value was “not detected”.

Question: And the “Decomposition efficiency: ratio of each glycoside/aglycon within its isoflavone family” value ([1]; soymilk, substrate concentration 2%, heat treatment of enzyme yes, reaction time 6 h)?
Answer: Its value is 48.2%.

Question: What about the “Decomposition efficiency: ratio of each glycoside/aglycon within its isoflavone family” value ([1]; soymilk, substrate concentration 5%, heat treatment of enzyme no, reaction time 0 h) of the same molecule?
Answer: The value was 50.6%.

Question: And the “Decomposition efficiency: ratio of each glycoside/aglycon within its isoflavone family” value ([1]; soymilk, substrate concentration 5%, heat treatment of enzyme no, reaction time 1 h)?
Answer: The value was 24.6%.

Question: What about the “Decomposition efficiency: ratio of each glycoside/aglycon within its isoflavone family” value ([1]; soymilk, substrate concentration 5%, heat treatment of enzyme no, reaction time 3 h) of the same molecule?
Answer: Its value is 7.5%.

Question: And the “Decomposition efficiency: ratio of each glycoside/aglycon within its isoflavone family” value ([1]; soymilk, substrate concentration 5%, heat treatment of enzyme no, reaction time 6 h)?
Answer: Its value is “not detected”.

Question: What about the “Decomposition efficiency: ratio of each glycoside/aglycon within its isoflavone family” value ([1]; soymilk, substrate concentration 5%, heat treatment of enzyme yes, reaction time 6 h) of the same molecule?
Answer: The value was 43.3%.

Question: What about the “Decomposition efficiency: ratio of each glycoside/aglycon within its isoflavone family” value ([1]; soymilk, substrate concentration 10%, heat treatment of enzyme no, reaction time 0 h) of the same molecule?
Answer: Its value is 41.1%.

Question: And the “Decomposition efficiency: ratio of each glycoside/aglycon within its isoflavone family” value ([1]; soymilk, substrate concentration 10%, heat treatment of enzyme no, reaction time 1 h)?
Answer: Its value is 26.4%.

Question: What about the “Decomposition efficiency: ratio of each glycoside/aglycon within its isoflavone family” value ([1]; soymilk, substrate concentration 10%, heat treatment of enzyme no, reaction time 3 h) of the same molecule?
Answer: Its value is 10.5%.

Question: What about the “Decomposition efficiency: ratio of each glycoside/aglycon within its isoflavone family” value ([1]; soymilk, substrate concentration 10%, heat treatment of enzyme no, reaction time 6 h) of the same molecule?
Answer: The value was 4.2%.

Question: What about the “Decomposition efficiency: ratio of each glycoside/aglycon within its isoflavone family” value ([1]; soymilk, substrate concentration 10%, heat treatment of enzyme yes, reaction time 6 h) of the same molecule?
Answer: The value was 37.0%.

Question: And the “Decomposition efficiency: ratio of each glycoside/aglycon within its isoflavone family” value ([1]; soymilk, substrate concentration 20%, heat treatment of enzyme no, reaction time 0 h)?
Answer: Its value is 41.3%.

Question: What about the “Decomposition efficiency: ratio of each glycoside/aglycon within its isoflavone family” value ([1]; soymilk, substrate concentration 20%, heat treatment of enzyme no, reaction time 1 h) of the same molecule?
Answer: The value was 27.8%.

Question: And the “Decomposition efficiency: ratio of each glycoside/aglycon within its isoflavone family” value ([1]; soymilk, substrate concentration 20%, heat treatment of enzyme no, reaction time 3 h)?
Answer: The value was 9.4%.

Question: What about the “Decomposition efficiency: ratio of each glycoside/aglycon within its isoflavone family” value ([1]; soymilk, substrate concentration 20%, heat treatment of enzyme no, reaction time 6 h) of the same molecule?
Answer: The value was 5.9%.

Question: And the “Decomposition efficiency: ratio of each glycoside/aglycon within its isoflavone family” value ([1]; soymilk, substrate concentration 20%, heat treatment of enzyme yes, reaction time 6 h)?
Answer: The value was 38.8%.

Question: And the “Decomposition efficiency: ratio of each glycoside/aglycon within its isoflavone family” value ([1]; soymilk, substrate concentration 30%, heat treatment of enzyme no, reaction time 0 h)?
Answer: The value was 43.0%.

Question: What about the “Decomposition efficiency: ratio of each glycoside/aglycon within its isoflavone family” value ([1]; soymilk, substrate concentration 30%, heat treatment of enzyme no, reaction time 1 h) of the same molecule?
Answer: The value was 33.1%.

Question: What about the “Decomposition efficiency: ratio of each glycoside/aglycon within its isoflavone family” value ([1]; soymilk, substrate concentration 30%, heat treatment of enzyme no, reaction time 3 h) of the same molecule?
Answer: The value was 15.9%.

Question: And the “Decomposition efficiency: ratio of each glycoside/aglycon within its isoflavone family” value ([1]; soymilk, substrate concentration 30%, heat treatment of enzyme no, reaction time 6 h)?
Answer: The value was 7.7%.

Question: What about the “Decomposition efficiency: ratio of each glycoside/aglycon within its isoflavone family” value ([1]; soymilk, substrate concentration 30%, heat treatment of enzyme yes, reaction time 6 h) of the same molecule?
Answer: Its value is 37.5%.

Question: What about the aglycon ([2]; Reaction time 0 h) of the same molecule?
Answer: Its aglycon is 0.

Question: And the glucoside ([2]; Reaction time 0 h)?
Answer: Its glucoside is 100.

Question: What about the aglycon ([2]; Reaction time 1 h) of the same molecule?
Answer: Its aglycon is 0.

Question: What about the glucoside ([2]; Reaction time 1 h) of the same molecule?
Answer: The glucoside was 100.

Question: And the aglycon ([2]; Reaction time 3 h)?
Answer: Its aglycon is 0.

Question: What about the glucoside ([2]; Reaction time 3 h) of the same molecule?
Answer: Its glucoside is 100.

Question: What about the aglycon ([2]; Reaction time 6 h) of the same molecule?
Answer: Its aglycon is 0.

Question: And the glucoside ([2]; Reaction time 6 h)?
Answer: Its glucoside is 100.

Question: And the aglycon ([3]; Reaction time 0 h)?
Answer: The aglycon was 0.

Question: What about the glucoside ([3]; Reaction time 0 h) of the same molecule?
Answer: Its glucoside is 100.

Question: What about the aglycon ([3]; Reaction time 1 h) of the same molecule?
Answer: Its aglycon is 0.

Question: What about the glucoside ([3]; Reaction time 1 h) of the same molecule?
Answer: The glucoside was 100.

Question: What about the aglycon ([3]; Reaction time 3 h) of the same molecule?
Answer: The aglycon was 0.

Question: And the glucoside ([3]; Reaction time 3 h)?
Answer: The glucoside was 100.

Question: And the aglycon ([3]; Reaction time 6 h)?
Answer: Its aglycon is 0.4.

Question: And the glucoside ([3]; Reaction time 6 h)?
Answer: The glucoside was 99.6.
